Where “and” joins values, the source holds several entries; their conditions need not be identical. Equal entries are not always repeated.
Tested on: 313798-341-R-J2-PDC spheroids, viability
Assay: Anticancer human tumor 313798-341-R-J2-PDC patient-derived cervical squamous cell carcinoma cell line growth inhibition [PI3K]
Conditions: spheroids with HUVEC and MSC; for viability, T/C: stronger effect = lower value
Description: Combinatorial screen of targeted agents with the PI3K inhibitors inavolisib, alpelisib, duvelisib, and copanlisib in multi-cell type tumor spheroids
A high-throughput screen of multi-cell type tumor spheroids was designed to identify active combinations of targeted small molecules and PI3K pathway inhibitors. Complex spheroids include a stromal component modeled by human endothelial cells (HUVEC) and fibroblasts modeled by human mesenchymal stem cells (MSCs). The concentration ranges selected for each drug and investigational agent were based upon clinically achievable concentrations if the clinical Cmax of the agent was known.
Compounds. The drugs and investigational agents: inavolisib (NSC800729), alpelisib (NSC765974), duvelisib (NSC772469), copanlisib (NSC816437), ipatasertib (NSC767898), afuresertib (NSC778305), talazoparib (NSC767125), sapanisertib (NSC764658), selumetinib (NSC741078), tovorafenib (DAY101, NSC766906), vemurafenib (NSC761431), ravoxertinib (NSC781343), sotorasib (NSC818433), MRTX1133 (NSC 836407), abemaciclib (NSC 768073), palbociclib (NSC758247), venetoclax (NSC 766270), SY5609 (NSC837396), enzalutamide (NSC755605), and darolutamide (NSC825331), were obtained from the National Cancer Institute (NCI) Developmental Therapeutics Program Chemical Repository. The FDA-approved anticancer drug set is available from the NCI Developmental Therapeutics Program. […] The stock solutions were prepared in dimethyl sulfoxide (DMSO, Sigma-Aldrich, St. Louis, MO, cat. D2650) at 800-fold the tested concentration and stored at -70 degrees C prior to their use. All drugs and investigational agents were tested over a range starting from a high concentration at or near the clinical Cmax and decreasing in half-log increments. If the clinical Cmax for an agent had not been determined, the highest concentration tested was 10 microM.
Cell Culture. All cells were maintained in an incubator at 37 degrees C and 5% CO2 with 95% humidity. The PDC lines were cultured according to standard operating procedures established by the NCI PDMR (https://pdmr.cancer.gov/sops/default.htm). All PDCs were thawed and cultured in Matrigel-coated flasks prepared with a working solution of 1X Ham's F-12 nutrient mix, without supplementation (Invitrogen, Waltham, MA, cat. 11765054), 100 U/mL penicillin-streptomycin (Invitrogen, cat. 15140122), and 2.5% Matrigel (Corning Inc., Corning, NY, cat. 354248) for the first three passages. The 354836-022-R-J1-PDC, 475296-252-R-J1-PDC, and 997726-040-R-J2-PDC lines were cultured in 6A media, which includes advanced DMEM/F-12 (Thermo Fisher Scientific, cat. 12634028), 10 mM HEPES (Thermo Fisher Scientific, cat. 15630080), 1X GlutaMAX supplement (Thermo Fisher Scientific, cat. 35050061), 0.1 mg/mL primocin (InvivoGen, San Diego, CA, cat. ant-pm-2), 10% defined fetal bovine serum, heat inactivated (HyClone Laboratories Inc., Logan, UT, cat. SH30070.03HI), 50% L-WRN conditioned media (ATCC, cat. CRL-3276), 1.25 mM N-Acetyl-L-cysteine (Sigma-Aldrich, cat. A9165), 10 mM nicotinamide (Sigma-Aldrich, cat. N0636), 1X B-27 supplement (Thermo Fisher Scientific, cat. 17504044), 1X N-2 supplement (Thermo Fisher Scientific, cat. 17502048), and 10 microM Y-27632 dihydrochloride (Tocris Bioscience, Bristol, United Kingdom, cat. 1254). The 624824-186-R-J2-PDC line was cultured in 6C/Colon 1B media, which includes all 6A media components plus 50 ng/mL human EGF recombinant protein (Thermo Fisher Scientific, cat. PHG0311). […]
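Further: spheroids exposed to compounds for seven days.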
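Wherever viability, T/C is given: 100% = DMSO vehicle control viability.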

Structure (SMILES): CC(=O)c1c(C)c2cnc(Nc3ccc(N4CCNCC4)cn3)nc2n(C2CCCC2)c1=O + CC(Nc1ncnc2nc[nH]c12)c1cc2cccc(Cl)c2c(=O)n1-c1ccccc1
- IC50 (curve of first compound, second compound 0.0316 µM): > 100 nM
- IC50 (curve of first compound, second compound 0.1 µM): > 100 nM
- IC50 (curve of first compound, second compound 0.316 µM): > 100 nM
- IC50 (curve of first compound, second compound 1 µM): > 100 nM
- IC50 (curve of first compound, second compound 3.16 µM): > 100 nM
- IC50 (curve of first compound, second compound 10 µM): > 100 nM
- viability, T/C (second compound 0.0316 µM, first compound 0.000316 µM): 100%
- viability, T/C (second compound 0.0316 µM, first compound 0.001 µM): 112%
- viability, T/C (second compound 0.0316 µM, first compound 0.00316 µM): 98.8%
- viability, T/C (second compound 0.0316 µM, first compound 0.01 µM): 102%
- viability, T/C (second compound 0.0316 µM, first compound 0.0316 µM): 101%
- viability, T/C (second compound 0.0316 µM, first compound 0.1 µM): 106%
- viability, T/C (second compound 0.1 µM, first compound 0.000316 µM): 104%
- viability, T/C (second compound 0.1 µM, first compound 0.001 µM): 104%
- viability, T/C (second compound 0.1 µM, first compound 0.00316 µM): 108%
- viability, T/C (second compound 0.1 µM, first compound 0.01 µM): 109%
- viability, T/C (second compound 0.1 µM, first compound 0.0316 µM): 103%
- viability, T/C (second compound 0.1 µM, first compound 0.1 µM): 97.4%
- viability, T/C (second compound 0.316 µM, first compound 0.000316 µM): 99.6%
- viability, T/C (second compound 0.316 µM, first compound 0.001 µM): 105%
- viability, T/C (second compound 0.316 µM, first compound 0.00316 µM): 91.1%
- viability, T/C (second compound 0.316 µM, first compound 0.01 µM): 110%
- viability, T/C (second compound 0.316 µM, first compound 0.0316 µM): 95.3%
- viability, T/C (second compound 0.316 µM, first compound 0.1 µM): 104%
- viability, T/C (second compound 1 µM, first compound 0.000316 µM): 108%
- viability, T/C (second compound 1 µM, first compound 0.001 µM): 107%
- viability, T/C (second compound 1 µM, first compound 0.00316 µM): 94.1%
- viability, T/C (second compound 1 µM, first compound 0.01 µM): 106%
- viability, T/C (second compound 1 µM, first compound 0.0316 µM): 99.2%
- viability, T/C (second compound 1 µM, first compound 0.1 µM): 106%
- viability, T/C (second compound 3.16 µM, first compound 0.000316 µM): 100%
- viability, T/C (second compound 3.16 µM, first compound 0.001 µM): 108%
- viability, T/C (second compound 3.16 µM, first compound 0.00316 µM): 104%
- viability, T/C (second compound 3.16 µM, first compound 0.01 µM): 97%
- viability, T/C (second compound 3.16 µM, first compound 0.0316 µM): 100%
- viability, T/C (second compound 3.16 µM, first compound 0.1 µM): 103%
- viability, T/C (second compound 10 µM, first compound 0.000316 µM): 93%
- viability, T/C (second compound 10 µM, first compound 0.001 µM): 94.8%
- viability, T/C (second compound 10 µM, first compound 0.00316 µM): 92.6%
- viability, T/C (second compound 10 µM, first compound 0.01 µM): 98.2%
- viability, T/C (second compound 10 µM, first compound 0.0316 µM): 92.3%
- viability, T/C (second compound 10 µM, first compound 0.1 µM): 87.5%

Structure (SMILES): CC(Cn1ccc(-c2ccc(C#N)c(Cl)c2)n1)NC(=O)c1cc(C(C)O)[nH]n1 (centres undefined)
- viability, T/C (compound 0.0316 µM): 98.1% and 107% and 99.7%
- viability, T/C (compound 0.1 µM): 111% and 96.9% and 101%
- viability, T/C (compound 0.316 µM): 101% and 107% and 113%
- viability, T/C (compound 1 µM): 113% and 97.7% and 93.9%
- viability, T/C (compound 3.16 µM): 99% and 105% and 104%
- viability, T/C (compound 10 µM): 99.1% and 101% and 93.9%
- IC50 (curve of compound): > 10000 nM
